Active and inactive are the calls of the source.
Key:
[1] = biological target: T1, Carboxy-terminal domain RNA polymerase II polypeptide A small phosphatase 1 (Homo sapiens, UniProt Q9GZU7); assay: inhibitors of CTDSP1, concentration-response testing, biochemical assay, absorbance-based, actives from ultra-high-throughput screening (AID 540297); format: functional
T1 sequence (Q9GZU7 whole entry): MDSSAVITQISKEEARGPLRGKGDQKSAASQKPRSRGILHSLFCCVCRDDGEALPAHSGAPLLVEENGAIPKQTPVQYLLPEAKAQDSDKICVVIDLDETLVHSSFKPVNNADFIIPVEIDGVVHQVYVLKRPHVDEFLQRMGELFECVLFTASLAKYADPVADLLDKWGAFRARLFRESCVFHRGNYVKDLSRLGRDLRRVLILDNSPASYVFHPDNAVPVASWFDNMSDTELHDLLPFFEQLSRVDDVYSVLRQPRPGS

[2] = Luminescence Cell-Based Dose Response HTS to Identify Inhibitors of 5'UTR Stem-Loop Driven Prion Protein mRNA Translation in H4 Neuroglioblastoma Cells. [Related pubchem assays: 1827 (Project Summary), 1813 (Primary HTS)]; format: functional
[3] = control 3'UTR Renilla luciferase suppression, dose response, counter-screen for Shn3 inhibitor project, cell-based, Clone20-Shn3RL, cherry-picked (AID 624133); format: functional
Vero [4] = assay: cells; format: functional, cell-based; settings: Chlorocebus sabaeus
[5] = inhibitors of firefly luciferase expression or activity, dose response, H4 neuroglioma cells, luminescence (AID 1990); format: functional, cell-based
[6] = cytotoxicity toward NIH3T3 fibroblasts, dose response, counter-screen, cell-based, ATP luminescence, mouse fibroblasts (AID 2010); format: functional;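 note: cells exposed to compound for about 90 hours before reading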
Cytochrome P450 3A4 = Cytochrome P450 3A4 (Homo sapiens, UniProt P08684);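 note: CYP3A4 tested as one member of a cytochrome P450 panel screen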
Sequence of Cytochrome P450 3A4 (P08684 whole entry): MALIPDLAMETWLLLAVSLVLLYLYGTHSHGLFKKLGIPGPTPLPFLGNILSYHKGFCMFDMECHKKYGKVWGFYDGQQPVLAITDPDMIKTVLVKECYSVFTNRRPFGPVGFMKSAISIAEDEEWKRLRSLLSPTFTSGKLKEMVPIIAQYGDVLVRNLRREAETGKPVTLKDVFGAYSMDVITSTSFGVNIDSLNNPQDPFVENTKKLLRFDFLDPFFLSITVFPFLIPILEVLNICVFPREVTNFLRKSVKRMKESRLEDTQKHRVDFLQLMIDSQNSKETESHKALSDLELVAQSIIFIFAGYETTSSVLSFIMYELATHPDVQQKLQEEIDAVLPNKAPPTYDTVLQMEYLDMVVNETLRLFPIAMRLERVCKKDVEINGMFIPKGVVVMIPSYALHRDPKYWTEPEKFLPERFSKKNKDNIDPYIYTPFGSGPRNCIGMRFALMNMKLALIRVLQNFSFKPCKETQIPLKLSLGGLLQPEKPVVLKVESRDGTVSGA

Vero [7] = assay: cells; format: functional; settings: Chlorocebus sabaeus
cells [8] = format: functional, cell-based
[9] = NIH-3T3 fibroblast cytotoxicity, dose response, cytotoxicity control, cell-based, fluorescence, Alamar Blue, secondary assay (AID 2327); format: functional;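 note: NIH-3T3 mouse fibroblasts cultured with fluconazole at 8 µg/mL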
Cytochrome P450 2C19 = Cytochrome P450 2C19 (Homo sapiens, UniProt P33261); assay: Cytochrome panel assay with activity outcomes. Panel member name: p450-cyp2c19 Compounds with AC50 equal or less than 10 uM are considered active; format: functional; settings: read-out: AC50
Sequence of Cytochrome P450 2C19 (P33261 whole entry): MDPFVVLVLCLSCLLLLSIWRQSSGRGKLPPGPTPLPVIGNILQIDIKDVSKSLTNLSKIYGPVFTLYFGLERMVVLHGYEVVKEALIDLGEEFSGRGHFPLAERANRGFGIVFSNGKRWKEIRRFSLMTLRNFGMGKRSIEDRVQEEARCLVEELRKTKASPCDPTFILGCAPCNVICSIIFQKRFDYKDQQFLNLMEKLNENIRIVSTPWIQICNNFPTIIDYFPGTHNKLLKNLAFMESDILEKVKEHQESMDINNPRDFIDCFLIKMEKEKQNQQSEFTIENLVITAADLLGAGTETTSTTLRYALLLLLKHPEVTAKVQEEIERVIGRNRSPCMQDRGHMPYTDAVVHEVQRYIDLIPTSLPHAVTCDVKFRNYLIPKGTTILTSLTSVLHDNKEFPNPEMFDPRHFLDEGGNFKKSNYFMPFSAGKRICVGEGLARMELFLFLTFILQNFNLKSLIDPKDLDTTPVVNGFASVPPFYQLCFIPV

[10] = C. albicans growth with fluconazole, confirmation, fluorescence, retest (AID 2467); format: functional, cell-based
[11] = Shn3 3'UTR reporter inhibitors, dose response, cell-based, Clone20 osteoblasts, firefly luciferase, cherry-picked (AID 624132); format: functional;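 note: firefly luciferase luminescence from reporter carrying the Shn3 3'UTR in osteoblasts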
Streptococcus = assay: Group A Streptococcus viability loss, dose response, counter-screen for streptokinase expression inhibitor project, luminescence, BacTiterGlo (AID 1915); format: functional, organism-based;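 note: potency for reduction of bacterial viability or growth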
Cytochrome P450 2C9 = Cytochrome P450 2C9 (Homo sapiens, UniProt P11712)
Sequence of Cytochrome P450 2C9 (P11712 whole entry): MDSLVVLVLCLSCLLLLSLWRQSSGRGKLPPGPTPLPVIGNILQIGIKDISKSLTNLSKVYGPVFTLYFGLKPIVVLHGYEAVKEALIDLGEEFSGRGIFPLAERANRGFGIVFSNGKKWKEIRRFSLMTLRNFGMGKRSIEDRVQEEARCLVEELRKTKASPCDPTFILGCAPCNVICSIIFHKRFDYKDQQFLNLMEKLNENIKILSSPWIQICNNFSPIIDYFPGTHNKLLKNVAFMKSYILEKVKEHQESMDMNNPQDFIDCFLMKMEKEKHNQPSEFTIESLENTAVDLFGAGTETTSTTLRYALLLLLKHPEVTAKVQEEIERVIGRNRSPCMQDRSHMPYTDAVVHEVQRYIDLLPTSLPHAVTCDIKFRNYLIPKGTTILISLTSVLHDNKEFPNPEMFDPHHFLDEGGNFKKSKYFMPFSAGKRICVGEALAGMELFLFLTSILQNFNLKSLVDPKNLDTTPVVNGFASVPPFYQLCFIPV

[12] = biological target: T2, Type-1 angiotensin II receptor (Homo sapiens, UniProt P30556); assay: AT1 receptor antagonists, dose response, selectivity assay for APJ receptor antagonist project, cell-based, uHTS hits (AID 463214); format: functional;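 note: antagonist potency against angiotensin II stimulated AT1 response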
T2 sequence (P30556 whole entry): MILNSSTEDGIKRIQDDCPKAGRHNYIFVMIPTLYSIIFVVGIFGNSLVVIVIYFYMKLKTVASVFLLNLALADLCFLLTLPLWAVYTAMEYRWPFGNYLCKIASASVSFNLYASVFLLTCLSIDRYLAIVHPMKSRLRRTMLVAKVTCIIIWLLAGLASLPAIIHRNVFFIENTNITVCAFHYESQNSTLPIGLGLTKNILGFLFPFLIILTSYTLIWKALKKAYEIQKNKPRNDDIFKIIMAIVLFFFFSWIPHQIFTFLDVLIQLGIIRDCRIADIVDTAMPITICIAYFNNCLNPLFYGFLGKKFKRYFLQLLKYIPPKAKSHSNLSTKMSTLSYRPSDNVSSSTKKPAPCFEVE

[13] = inhibitors of intracellular T. cruzi replication, confirmation, NIH3T3 host cells, beta-gal luminescence (AID 2044); format: functional, cell-based;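 note: intracellular parasites grown in NIH/3T3 mouse fibroblasts as host cells; luminescent beta-galactosidase reporter signal from transgenic T. cruzi replicating inside host cells; inhibitors lower the luminescence signal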
cells [14] = format: functional, cell-based; remark: listed apart in the source
[15] = inhibitors of SNCA 5'UTR-driven reporter translation, confirmation, H4 neuroglioma cells, luminescence (AID 1988); format: functional, cell-based
Cytochrome P450 1A2 = biological target: T3, Cytochrome P450 1A2 (Homo sapiens, UniProt P05177);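 note: PubChem cytochrome P450 panel assay, CYP1A2 panel member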
T3 sequence (P05177 whole entry): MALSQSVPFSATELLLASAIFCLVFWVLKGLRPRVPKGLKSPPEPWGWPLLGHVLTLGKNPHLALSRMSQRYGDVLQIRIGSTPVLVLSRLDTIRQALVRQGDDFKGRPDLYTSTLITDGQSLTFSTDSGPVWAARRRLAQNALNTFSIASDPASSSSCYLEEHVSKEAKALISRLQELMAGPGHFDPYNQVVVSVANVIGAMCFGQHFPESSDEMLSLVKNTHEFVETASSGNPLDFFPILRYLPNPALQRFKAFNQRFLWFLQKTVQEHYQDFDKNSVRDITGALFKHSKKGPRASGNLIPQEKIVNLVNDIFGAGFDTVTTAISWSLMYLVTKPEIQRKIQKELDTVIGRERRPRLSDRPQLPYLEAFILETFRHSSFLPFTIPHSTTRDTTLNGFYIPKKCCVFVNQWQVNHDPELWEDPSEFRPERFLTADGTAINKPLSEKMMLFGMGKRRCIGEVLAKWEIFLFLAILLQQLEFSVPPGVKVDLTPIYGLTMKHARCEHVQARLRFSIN

Beta-galactosidase = Beta-galactosidase (Escherichia coli, UniProt Q8VNN2); assay: PubChem AID 485352; format: functional
Sequence of Beta-galactosidase (Q8VNN2 whole entry): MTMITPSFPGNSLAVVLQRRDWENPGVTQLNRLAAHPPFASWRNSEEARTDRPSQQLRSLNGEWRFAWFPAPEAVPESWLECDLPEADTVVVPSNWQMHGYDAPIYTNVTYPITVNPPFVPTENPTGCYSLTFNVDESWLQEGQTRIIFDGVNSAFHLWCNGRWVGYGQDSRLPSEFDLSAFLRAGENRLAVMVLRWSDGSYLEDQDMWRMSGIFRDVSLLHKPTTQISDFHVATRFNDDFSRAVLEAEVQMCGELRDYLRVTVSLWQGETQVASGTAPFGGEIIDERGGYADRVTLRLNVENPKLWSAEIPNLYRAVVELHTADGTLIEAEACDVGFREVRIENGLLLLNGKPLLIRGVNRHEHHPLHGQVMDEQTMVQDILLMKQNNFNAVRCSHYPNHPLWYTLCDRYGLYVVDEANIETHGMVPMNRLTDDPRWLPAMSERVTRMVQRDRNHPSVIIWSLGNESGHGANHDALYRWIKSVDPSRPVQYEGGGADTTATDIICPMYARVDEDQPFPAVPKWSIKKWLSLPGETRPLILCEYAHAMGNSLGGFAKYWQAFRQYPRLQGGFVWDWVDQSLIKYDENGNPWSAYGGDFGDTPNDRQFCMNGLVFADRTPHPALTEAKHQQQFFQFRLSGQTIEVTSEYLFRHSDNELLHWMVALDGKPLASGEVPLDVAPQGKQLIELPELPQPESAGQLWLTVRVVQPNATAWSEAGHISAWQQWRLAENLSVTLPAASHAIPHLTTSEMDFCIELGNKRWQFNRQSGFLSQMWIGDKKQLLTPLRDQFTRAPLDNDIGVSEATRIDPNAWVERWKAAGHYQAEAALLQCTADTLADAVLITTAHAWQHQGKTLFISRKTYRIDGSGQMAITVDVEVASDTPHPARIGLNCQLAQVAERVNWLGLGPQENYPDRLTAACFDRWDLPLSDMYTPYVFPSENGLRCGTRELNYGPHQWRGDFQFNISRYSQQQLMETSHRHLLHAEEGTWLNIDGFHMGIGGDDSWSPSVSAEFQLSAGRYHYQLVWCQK

[16] = HepG2 cell cytotoxicity, dose response, cytotoxicity control for Shn3 inhibitor project, CellTiter-Glo, cherry-picked (AID 624134); format: functional, cell-based
[17] = tested on: Streptococcus sp. 'group A'; assay: growth inhibition of control SK(-) GAS strain, dose response, counter-screen for streptokinase expression inhibitor project, luminescence, kanamycin, BacTiterGlo, confirmation (AID 1900); format: functional, organism-based
[18] = biological target: T4, High affinity choline transporter 1 (Homo sapiens, UniProt Q9GZV3); assay: CHT inhibitors, dose response, cell-based, 5-point CRC, membrane potential dye (AID 504840); format: functional
T4 sequence (Q9GZV3 whole entry): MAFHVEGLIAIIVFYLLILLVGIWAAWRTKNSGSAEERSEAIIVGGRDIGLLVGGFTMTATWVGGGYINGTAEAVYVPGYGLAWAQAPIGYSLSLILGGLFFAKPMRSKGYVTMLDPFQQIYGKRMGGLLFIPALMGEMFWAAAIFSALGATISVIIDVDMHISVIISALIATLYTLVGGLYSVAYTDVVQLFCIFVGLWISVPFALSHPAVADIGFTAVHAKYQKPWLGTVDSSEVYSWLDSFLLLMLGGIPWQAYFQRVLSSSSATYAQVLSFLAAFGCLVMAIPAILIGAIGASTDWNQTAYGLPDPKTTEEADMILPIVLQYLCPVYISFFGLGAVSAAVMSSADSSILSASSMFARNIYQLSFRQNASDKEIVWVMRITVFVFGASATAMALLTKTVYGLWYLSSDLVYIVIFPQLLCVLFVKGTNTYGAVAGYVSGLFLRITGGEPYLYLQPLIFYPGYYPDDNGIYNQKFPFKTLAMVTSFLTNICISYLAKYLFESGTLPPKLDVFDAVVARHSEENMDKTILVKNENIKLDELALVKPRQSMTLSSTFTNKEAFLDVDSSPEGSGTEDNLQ

[19] = Counterscreen for inhibitors of Trypanosoma brucei methionyl tRNA synthetase (MetRS): Luminescence-based cell-based high throughput dose response assay to identify compounds that are cytotoxic to Jurkat human T lymphocyte cells.; format: functional
[20] = biological target: T5, Methionyl-tRNA synthetase, putative (Trypanosoma brucei brucei, UniProt Q38C91); format: functional, Trypanosoma brucei brucei strain 927/4 GUTat10.1
T5 sequence (Q38C91 whole entry): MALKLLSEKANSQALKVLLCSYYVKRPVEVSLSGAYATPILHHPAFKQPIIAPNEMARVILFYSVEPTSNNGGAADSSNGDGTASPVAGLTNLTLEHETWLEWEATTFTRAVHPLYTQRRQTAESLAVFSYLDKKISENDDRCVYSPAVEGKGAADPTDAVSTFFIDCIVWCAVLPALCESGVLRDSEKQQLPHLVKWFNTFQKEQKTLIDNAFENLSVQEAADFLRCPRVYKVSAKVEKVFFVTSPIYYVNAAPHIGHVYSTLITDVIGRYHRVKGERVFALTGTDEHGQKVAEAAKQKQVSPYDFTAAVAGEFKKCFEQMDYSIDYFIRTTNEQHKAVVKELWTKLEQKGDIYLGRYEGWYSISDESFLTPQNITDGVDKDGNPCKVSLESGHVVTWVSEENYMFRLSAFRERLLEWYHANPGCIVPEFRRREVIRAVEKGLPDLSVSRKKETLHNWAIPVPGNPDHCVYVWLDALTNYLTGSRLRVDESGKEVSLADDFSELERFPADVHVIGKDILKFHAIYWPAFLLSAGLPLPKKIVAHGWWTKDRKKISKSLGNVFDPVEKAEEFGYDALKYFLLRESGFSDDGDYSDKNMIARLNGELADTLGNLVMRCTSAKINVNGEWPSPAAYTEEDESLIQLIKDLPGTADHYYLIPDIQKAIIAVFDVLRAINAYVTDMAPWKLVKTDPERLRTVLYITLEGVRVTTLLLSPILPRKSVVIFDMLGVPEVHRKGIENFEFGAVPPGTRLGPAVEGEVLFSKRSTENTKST

[21] = biological target: T5, Methionyl-tRNA synthetase, putative; format: functional, Trypanosoma brucei brucei strain 927/4 GUTat10.1; remark: listed apart in the source
Melanocortin receptor 4 = Melanocortin receptor 4 (Homo sapiens, UniProt P32245); format: functional, cell-based;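 note: Cell-based assay with luminescence read-out, confirmatory dose-response testing for agonist activity of biased ligands at MC4R; human U2OS cells with tagged receptor and beta-arrestin; potency of agonists that increase receptor coupling to beta-arrestin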
Sequence of Melanocortin receptor 4 (P32245 whole entry): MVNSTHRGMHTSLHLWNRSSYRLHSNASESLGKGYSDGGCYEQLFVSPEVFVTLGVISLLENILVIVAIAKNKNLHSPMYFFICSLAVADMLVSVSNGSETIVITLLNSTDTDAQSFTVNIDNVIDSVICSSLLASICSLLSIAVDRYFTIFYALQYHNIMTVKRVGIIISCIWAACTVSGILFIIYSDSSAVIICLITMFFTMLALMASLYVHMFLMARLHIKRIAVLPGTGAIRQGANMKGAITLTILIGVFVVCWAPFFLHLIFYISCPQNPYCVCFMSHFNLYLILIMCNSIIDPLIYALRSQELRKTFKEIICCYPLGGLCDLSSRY

cells [22] = format: functional
[23] = biological target: T6, Rac GTPase-activating protein 1 (Homo sapiens, UniProt Q9H0H5); assay: MgcRacGAP GTPase-activating activity inhibitors, confirmation, biochemical, ADP Hunter fluorescence, primary and confirmatory (AID 624330); format: functional
T6 sequence (Q9H0H5 whole entry): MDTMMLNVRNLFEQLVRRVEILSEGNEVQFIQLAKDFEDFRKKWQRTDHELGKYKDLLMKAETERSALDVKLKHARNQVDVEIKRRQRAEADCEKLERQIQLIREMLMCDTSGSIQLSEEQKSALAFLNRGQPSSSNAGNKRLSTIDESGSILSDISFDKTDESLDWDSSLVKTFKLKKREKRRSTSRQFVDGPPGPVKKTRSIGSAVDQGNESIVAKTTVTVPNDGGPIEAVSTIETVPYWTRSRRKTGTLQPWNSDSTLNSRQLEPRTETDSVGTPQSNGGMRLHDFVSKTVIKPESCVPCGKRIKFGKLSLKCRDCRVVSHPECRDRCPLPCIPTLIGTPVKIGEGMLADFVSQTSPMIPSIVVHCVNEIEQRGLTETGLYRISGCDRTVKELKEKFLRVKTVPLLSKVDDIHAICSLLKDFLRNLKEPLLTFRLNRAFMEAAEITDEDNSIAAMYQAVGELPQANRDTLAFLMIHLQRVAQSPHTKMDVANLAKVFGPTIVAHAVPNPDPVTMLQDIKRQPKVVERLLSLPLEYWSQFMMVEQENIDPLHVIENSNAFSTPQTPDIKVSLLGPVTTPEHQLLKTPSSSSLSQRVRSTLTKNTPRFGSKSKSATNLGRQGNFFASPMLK

[24] = biological target: NAD-dependent protein deacylase sirtuin-5, mitochondrial (Homo sapiens, UniProt Q9NXA8); assay: SIRT5 desuccinylase inhibitors, dose response, biochemical, fluorescence imaging, cherry-pick, set 5 (AID 720591);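 note: desuccinylation of succinyl peptide AMC substrate read as fluorescence after trypsin release; potency of inhibitors that lower fluorescence and may act on trypsin instead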
Sequence of NAD-dependent protein deacylase sirtuin-5, mitochondrial (Q9NXA8 whole entry): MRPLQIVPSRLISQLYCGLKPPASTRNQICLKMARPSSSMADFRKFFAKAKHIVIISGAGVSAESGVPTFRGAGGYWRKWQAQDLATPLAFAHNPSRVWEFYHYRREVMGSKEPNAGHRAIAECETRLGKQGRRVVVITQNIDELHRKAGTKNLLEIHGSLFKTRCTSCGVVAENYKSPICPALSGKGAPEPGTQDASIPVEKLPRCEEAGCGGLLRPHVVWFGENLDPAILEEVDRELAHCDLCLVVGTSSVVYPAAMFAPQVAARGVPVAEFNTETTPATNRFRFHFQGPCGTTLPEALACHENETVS

C=CCn1c(COc2ccc(F)cc2)nnc1SCC(=O)NC(=O)NCc1ccco1
IC50 [1]: 15.9 µM (active)

Cc1nc(-n2nc3c(c2O)CCCC3)[nH]c(=O)c1Cc1ccccc1
EC50 [2]: 14.9 µM (active)
AC50 [3]: 2.37 µM (active)
IC50 (Vero [4]): > 25 µM (active)
EC50 [5]: 8.07 µM (active)
EC50 [6]: 1.06 µM (active)
AC50 (Cytochrome P450 3A4): inconclusive
CC50 (Vero [7]): 9.47 µM (active)
EC50 (cells [8]): 16.8 µM (active)
EC50 [9]: > 150 µM (inconclusive)
AC50 (Cytochrome P450 2C19): 25.1 µM (inconclusive)
EC50 [10]: 0.554 µM (active)
AC50 [11]: 4.44 µM (active)
EC50 (Streptococcus): 4.47 µM (active)
AC50 (Cytochrome P450 2C9): 4.47 µM (inconclusive)
IC50 [12]: 14.2 µM (active)
EC50 [13]: 1.17 µM (active)
EC50 (cells [14]): > 350 µM (not active)
EC50 [15]: 6.76 µM (active)
AC50 (Cytochrome P450 1A2): 14.1 µM (inconclusive)
EC50 (Beta-galactosidase): > 40 µM (inactive)
AC50 [16]: 57 µM (active)
EC50 [17]: 1.14 µM (active)

COC(=O)C1=COC(OC2OC(CO)C(O)C(O)C2O)C2C1C=CC2(O)CO (stereo not drawn)
IC50 [1]: 3.19 µM (active)

O=C1C2CCCN2C(c2cccs2)N1c1ccc(Cl)cc1 (stereo not drawn)
EC50 [2]: 17 µM (active)
IC50 (Vero [4]): 17.1 µM (active)
EC50 [5]: 45.2 µM (active)
EC50 [15]: 49.9 µM (active)

O=C(NNC(=O)c1ccc(NC(=O)c2ccccc2)cc1)Nc1ccccc1
IC50 [1]: 7.38 µM (active)

Cc1cc(C)nc(SCc2cc(=O)c(OC(=O)c3ccco3)co2)n1
IC50 [18]: 12.3 µM (active)

Cc1ccc(-c2c[nH]c(C(O)c3cc(Cl)cc(Cl)c3)n2)cc1 (stereo not drawn)
IC50 [19]: 74.7 µM (inactive)
IC50 [20]: 6.3 µM (active)
IC50 [21]: 15.3 µM (inactive)

Cc1c(NS(=O)(=O)c2cc(C(=O)NCc3cccc(Cl)c3)ccc2Cl)c(=O)n(-c2ccccc2)n1C
IC50 [19]: 83.3 µM (inactive)
IC50 [20]: 26.8 µM (inactive)
IC50 [21]: 94.9 µM (inactive)

COc1ccccc1-c1cc(NC(C)=O)c2ncc(-c3cccc(C(F)(F)F)c3)n2c1
EC50 (Melanocortin receptor 4): > 89.2 µM (inactive)

COc1ccc(-c2cc(NC(C)=O)c3ncc(-c4ccc(F)cc4)n3c2)cc1OC
EC50 (Melanocortin receptor 4): > 89.2 µM (inactive)

O=C(C/C=N\OCc1ccc([N+](=O)[O-])cc1)Nc1ccc(Cl)cc1
IC50 (cells [22]): 25.5 µM (active)
IC50 [19]: 83.3 µM (inactive)
IC50 [20]: 1.73 µM (active)
IC50 [21]: 2.56 µM (active)

O=C(CC(=O)Nc1ccc(Cl)c(Cl)c1)N/N=C/c1ccc(O)cc1
IC50 [19]: 83.3 µM (inactive)
IC50 [20]: 43.9 µM (inactive)
IC50 [21]: 25.3 µM (inactive)
IC50 [23]: 74 µM (active)

Cc1ccc(S(=O)(=O)OCC(=O)Nc2ccc(C(=O)O)c(O)c2)cc1
IC50 [1]: 4.64 µM (active)
AC50 [24]: 4.19 µM (active)

Reference: ChEMBL document CHEMBL1201862, “PubChem BioAssay data set” (2004)
